Experimental data taken from publication PMC9433906, “Evaluation of the biotechnological potential of peptide Cupiennin 1a and analogs” (Frontiers in Microbiology, 2022).
≈ marks a conversion by molar mass, not a printed value. Where a SMILES comes first, the peptide text is derived from it.

Legend:
S. aureus (ATCC 25923) = type: cell-based, Staphylococcus aureus; settings: S. aureus (ATCC25923); 5×10^5 CFU.ml^−1, Mueller-Hinton Broth, 37°C, 24 h, OD 595 nm, biological triplicates
Description: (§1) Susceptibility tests were performed using clinical isolates of Klebsiella pneumoniae carbapenemase (KPC 1410503) and methicillin-resistant S. aureus (MRSA 3730592). Tests were also performed with ATCC (American Type Culture Collection) isolates of K. pneumoniae (ATCC 13883) and S. aureus (ATCC 25923).
(§2) Two multidrug-resistant clinical isolates and two ATCC isolates were chosen to perform microbial susceptibility testing as models for studies with bacteria susceptible to antimicrobials found in the Gram-Positive and Gram-Negative groups of bacteria.
(§3) The broth microdilution method was performed according to the Clinical and Laboratory Standards Institute (CLSI) M07-A10 protocol to determine the Minimum Inhibitory Concentration (MIC; [Clinical Laboratory Standards Institute, 2015]). The assay was performed on 96-well microplates (TPP, United States), containing 5×10^5 CFU.ml^−1 of each tested bacterium per well and different peptide micromolar concentrations (Table 1) in a final volume of 100 μl of Mueller-Hinton Broth (MH). Negative control was represented by bacteria incubated in MH medium, while positive control was represented by culture incubated in MH medium with Amikacin. Plates were kept under agitation at 37°C in a BioTek spectrophotometer (PowerWaveTM HT Microplate Reader) with optical density (OD) readings at 595 nm every 30 min for 24 h. Inhibition results were analyzed using GraphPad Prism 8 software by comparing the OD from negative control wells (100%) to those containing peptides. All tests were performed in biological triplicates.

[1] = test system: methicillin-resistant S. aureus (MRSA 3730592); type: cell-based, Staphylococcus aureus; settings: Methicillin-Resistant S. aureus—MRSA clinical isolate 3730592; 5×10^5 CFU.ml^−1, Mueller-Hinton Broth, 37°C, 24 h, OD 595 nm, biological triplicates
Description: as §1, §2, §3

[2] = test system: C. parapsilosis (ATCC22019); experiment: Broth microdilution MIC (CLSI M27-A3 with modifications); type: cell-based, Candida parapsilosis; settings: 2.5 × 10^3 CFU.ml^−1, Sabouraud medium, 24 h at 30°C, absorbance 595 nm
Description: The broth microdilution method was performed according to the Clinical and Laboratory Standards Institute Guideline M27-A3 with modifications to determine the Minimum Inhibitory Concentration (MIC; [Clinical Laboratory Standards Institute, 2008]).
Initially, the fungus C. parapsilosis (ATCC22019) was grown in a Petri dish containing Sabouraud Dextrose Agar medium (Dextrose 40 g/L; Peptic digestion of animal tissue 5.0 g.L^−1; and Agar 15 g.L^−1) for 48 h. Subsequently, a pre-inoculum was performed from a yeast colony that was placed in 10 ml of liquid Sabouraud medium and incubated for 16 h at 28°C, with a constant rotation of 200 rpm. After the incubation period, 2.5 × 10^3 CFU.ml^−1 of fungus per well was incubated with different peptide micromolar concentrations (Table 1) to assess the MIC for each peptide.
Fungal cells incubated with Sabouraud medium were used as negative control, while positive control was represented by fungal cells incubated in Sabouraud medium and amphotericin B (10 μM). Subsequently, plates were incubated for 24 h at 30°C. After this period, the absorbance was read (595 nm) in a BioTek spectrophotometer (PowerWaveTM HT Microplate Reader), and data of antifungal activity with percentage of inhibition of peptides were plotted in GraphPad Prism 8 Software.

[3] = test system: Human fibroblast (Hfib) cells; experiment: MTT cytotoxicity test against human fibroblasts (Hfib); type: cell-based; settings: 24 h; for cytotoxicity against Hfib cells at the other concentrations (in words): concentrations other than the highest
Description: Human fibroblast (Hfib) cell cultures were cultivated in Dulbecco’s Modified Eagle Medium (DMEM; Sigma-Aldrich, United States) supplemented with 10% fetal bovine serum (Sigma-Aldrich). Hfib were cultured in a humidified incubator containing 5% CO2 at 37°C and 95% humidity.
Hfib cell line was seeded onto 96-well plates (1 × 10^3 cells/well, 100 μl) before treatment and allowed to adhere and grow over the 24 h period. Each peptide was subsequently added at different micromolar concentrations. The results were evaluated using GraphPad Prism 8 software, where a One-Way ANOVA statistical test followed by Bonferroni’s multiple comparisons test was performed.
Cell viability analyses were performed in technical and biological replicates, and readings were obtained after 24 h of contact with peptides. At the end of the incubation period, MTT (Sigma-Aldrich, United States) was used to assess the ability of living cells to reduce salt 3-[4,5-dimethylthiazole-2-yl]-2,5-diphenyltetrazolium bromide for formazan production. Plates were read at 570 ηm ([Mosmann, 1983]) and results were expressed in the percentage of living cells. The results were analyzed using GraphPad Prism 8 software where a One-Way ANOVA statistical test was followed by Bonferroni’s multiple comparisons test.

[4] = test system: Spodoptera frugiperda (SF21) cells; experiment: In vitro test against insect cells (MTT); type: cell-based; settings: 24 h
Description: To evaluate the ability of the peptides to cause lysis and morphological changes in insect cells ([Dutra, 2019]; Patent: BR 102022 006138 6) as a first screening of the insecticidal activity of the peptides, in this work, the Spodoptera IPLB-SF-21AE _LVI-Cenargen cell line ([Vaughn et al., 1977]) was used and different concentrations of the peptides were added to the culture medium.
Cells were maintained at 27°C in TNMFH medium (Grace’s insect medium supplemented with lactalbumin hydrolyzate and yeastolate), supplemented with 10% (v/v) fetal bovine serum (Sigma-Aldrich; [Castro et al., 2006]).
Cell cultivation was carried out in 10 ml culture bottles, model K11-1050 25cm^2, with 5 ml of culture medium per bottle. For the assays, the SF21 cells were grown in TNMFH medium, added 10% (v/v) of bovine fetal serum, and distributed in plates of 96 wells at the concentration of 2×10^4 cells per well, after counting was performed in the Neubauer chamber. Cell suspension was distributed in a volume of 100 μl per well. Peptides were diluted in TNMFH medium and 100 μl of medium with peptide was added, obtaining concentrations of 10, 5, and 1 μM, reaching the volume of 200 μl at the final concentrations of reaction per well. Cells were placed in incubation at 27°C, for 24 h.
After 24 h, the cells were analyzed for their modifications, morphological alterations, turbidity of the medium, formation of clumps, and/or lysis in the presence of peptides, by observation under optical microscopy (Nikon Eclipse TS100) with 20× and 40× magnification. Characteristics that could represent cell death or cell dysfunction caused by the peptides were observed compared to control cells. Cells were evaluated by cell viability using the MTT test 3-[4,5-dimethylthiazole-2-yl]-2,5-diphenyltetrazolium bromide 0.5 mg.ml^−1 (Sigma-Aldrich). To perform the test, the cell culture medium was discarded, and we added 100 μl of new medium. Ten μl of MTT was added to each well and incubated for 4 h, with the plates protected from light. After 4 h, we added 100 μl of DMSO to each well to dissolve the formazan crystals, and the reading in the microplate reader ([Riss et al., 2016]) was then performed. The results were analyzed using GraphPad Prism 8 software, where a One-Way ANOVA statistical test was followed by Bonferroni’s multiple comparisons test.

[5] = lowest concentration tested (1 μM)

SMILES: CC(C)C[C@H](NC(=O)[C@H](C)NC(=O)CNC(=O)[C@H](Cc1ccccc1)NC(=O)CN)C(=O)N[C@@H](Cc1ccccc1)C(=O)N[C@@H](CCCCN)C(=O)N[C@@H](CCCNC(=N)N)C(=O)N[C@@H](CC(C)C)C(=O)N[C@@H](C)C(=O)N[C@@H](CCCCN)C(=O)N[C@@H](CCCCN)C(=O)N[C@H](C(=O)N[C@@H](C)C(=O)N[C@@H](CCCCN)C(=O)N[C@H](C(=O)N[C@H](C(=O)N[C@@H](C)C(N)=O)C(C)C)[C@@H](C)O)C(C)C [Peptide R3b] (H-GFGALFKRLAKKVAKTVA-NH2)
- Minimum inhibitory concentration (MIC) (S. aureus (ATCC 25923)): 67.21 µM (≈ 128 µg/mL)
- Minimum inhibitory concentration (MIC) [1]: 67.21 µM (≈ 128 µg/mL)
- Minimum inhibitory concentration (MIC) [2]: 33.60 µM (≈ 64 µg/mL)
- cytotoxic effect on Hfib cells (in words) ([3]; all concentrations tested): did not show any cytotoxic effect
- viable cells (SF21) ([4]; 10 μM): 14%
- cell viability (SF21) ([4]; 5 and 1 μM): greater than 50%

SMILES: CC(C)C[C@H](NC(=O)[C@H](C)NC(=O)CNC(=O)[C@H](Cc1ccccc1)NC(=O)CN)C(=O)N[C@@H](Cc1ccccc1)C(=O)N[C@@H](CCCCN)C(=O)N[C@@H](Cc1ccccc1)C(=O)N[C@@H](CC(C)C)C(=O)N[C@@H](C)C(=O)N[C@@H](CCCCN)C(=O)N[C@@H](C)C(=O)N[C@H](C(=O)N[C@@H](C)C(=O)N[C@@H](CCCCN)C(=O)N[C@@H](C)C(=O)N[C@H](C(=O)N[C@@H](C)C(N)=O)C(C)C)C(C)C [Peptide R6b] (H-GFGALFKFLAKAVAKAVA-NH2)
- Minimum inhibitory concentration (MIC) (S. aureus (ATCC 25923)): 17.7 µM (≈ 32 µg/mL)
- Minimum inhibitory concentration (MIC) [1]: 17.7 µM (≈ 32 µg/mL)
- Minimum inhibitory concentration (MIC) [2]: 70.8 µM (≈ 128 µg/mL)
- activity on Hfib cells, reducing the cell viability (in words) ([3]; 35.4 μM): slight activity
- Hfib cells eradicated ([3]; 70.8 μM): 100%
- cell viability (SF21) [4, 5]: below 50%

SMILES: CC(C)C[C@H](NC(=O)[C@H](C)NC(=O)CNC(=O)[C@H](Cc1ccccc1)NC(=O)CN)C(=O)N[C@@H](Cc1ccccc1)C(=O)N[C@@H](CCCCN)C(=O)N[C@@H](CCCNC(=N)N)C(=O)N[C@@H](CC(C)C)C(=O)N[C@@H](C)C(=O)N[C@@H](CCCCN)C(=O)N[C@@H](C)C(=O)N[C@H](C(=O)N[C@@H](C)C(=O)N[C@@H](CCCCN)C(=O)N[C@@H](C)C(=O)N[C@H](C(=O)N[C@@H](C)C(N)=O)C(C)C)C(C)C [Peptide R8b] (H-GFGALFKRLAKAVAKAVA-NH2)
- Minimum inhibitory concentration (MIC) (S. aureus (ATCC 25923)): 17.60 µM (≈ 32 µg/mL)
- Minimum inhibitory concentration (MIC) [1]: 17.60 µM (≈ 32 µg/mL)
- Minimum inhibitory concentration (MIC) [2]: 35.21 µM (≈ 64 µg/mL)
- Hfib cells killed at the highest concentration ([3]; 70.43 (highest concentration)): 100%
- cytotoxicity against Hfib cells at the other concentrations (in words) [3]: not harmful
- cell viability (SF21) [4, 5]: below 50%

SMILES: CC(C)C[C@H](NC(=O)[C@H](CCCNC(=N)N)NC(=O)[C@H](CCCCN)NC(=O)[C@H](Cc1ccccc1)NC(=O)[C@H](CC(C)C)NC(=O)[C@H](CCCCN)NC(=O)CNC(=O)[C@H](Cc1ccccc1)NC(=O)CN)C(=O)N[C@@H](C)C(=O)N[C@@H](CCCCN)C(=O)N[C@@H](C)C(=O)N[C@H](C(=O)N[C@@H](C)C(=O)N[C@@H](CCCCN)C(=O)N[C@@H](C)C(=O)N[C@H](C(=O)N[C@@H](C)C(N)=O)C(C)C)C(C)C [Peptide R10b] (H-GFGKLFKRLAKAVAKAVA-NH2)
- Minimum inhibitory concentration (MIC) (S. aureus (ATCC 25923)): 8.53 µM (≈ 16 µg/mL)
- Minimum inhibitory concentration (MIC) [1]: 8.53 µM (≈ 16 µg/mL)
- Minimum inhibitory concentration (MIC) [2]: 34.15 µM (≈ 64 µg/mL)
- Hfib cells killed at the highest concentration ([3]; 68.3 (highest concentration)): 100%
- cytotoxicity against Hfib cells at the other concentrations (in words) [3]: not harmful
- cell viability (SF21) [4, 5]: below 50%
